{"source": "patent US7396658B2", "about": "“Methods for screening HIF like ouabain-resistant Na+—K+-ATPase agents” (priority 1998, dated 2008)", "origin": "cited, not measured here", "key": {"[1]": {"biological_target": "ouabain-resistant Na^+—K^+-ATPase (Rattus norvegicus, UniProt P06685)", "conditions": "generally needed"}, "[2]": {"biological_target": "T1, ouabain-resistant α1 isoform (obtained from rat kidney) (Rattus norvegicus, UniProt P06685)", "T1 construct": "the ouabain-resistant α1 isoform (obtained from rat kidney); host or cells: rat kidney tissue", "conditions": "α1 from rat kidney vs α2/α3 from rat brain axolemma; factor greater"}}, "data": [{"smiles": "C[C@@H]1O[C@@H](O[C@H]2C[C@@H](O)[C@]3(CO)[C@H]4[C@H](O)C[C@]5(C)[C@@H](C6=CC(=O)OC6)CC[C@]5(O)[C@@H]4CC[C@]3(O)C2)[C@H](O)[C@H](O)[C@H]1O", "note": "[ouabain]", "values": [{"measurement": "concentration needed to inhibit ouabain-resistant Na+-K+-ATPases relative to that inhibiting ouabain sensitive Na+-K+-ATPase", "setting": "[1]", "value": "≥ 100", "unit": "fold"}, {"measurement": "concentrations of ouabain required for inactivation of the ouabain-resistant α1 isoform, relative to that for inactivating the ouabain-sensitive α2/α3 isoforms", "setting": "[2]", "value": "10^2-10^3"}]}]}
